According to the supplement of paper PMC10331698:
± gives the standard deviation of the averaged measurements.

How the values were obtained:
Experiment in all cases: level (log10 ratio to DMSO vehicle control); higher = higher biomarker level / cell amount than vehicle control
Settings in all cases: in DMSO
Hexafluoroglutaric acid = compound: O=C(O)C(F)(F)C(F)(F)C(F)(F)C(=O)O [Hexafluoroglutaric acid]
Description: (§1)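 BioMAP Diversity Plus panel of 12 human primary cell co-culture systems (3C, 4H, LPS, SAg, BT, BF4T, BE3C, CASM3C, HDF3CGF, KF3CT, MyoF, Mphg). Compounds were added 1 h before stimulation and left for 24 h (MyoF 48 h; BT 72 h for soluble read-outs or 6 d for IgG). Biomarkers were read by ELISA, cytotoxicity by SRB, PBMC viability and proliferation by Alamar Blue. Each well value was divided by the mean of 8 DMSO control wells on the same plate and log10 transformed; duplicate blinded samples were tested at 4 concentrations.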

Perfluorooctanamide = compound: NC(=O)C(F)(F)C(F)(F)C(F)(F)C(F)(F)C(F)(F)C(F)(F)C(F)(F)F [Perfluorooctanamide]
Description: as §1

[1] = compound: O=C(O)C(F)(F)C(F)(F)C(F)(F)C(F)(F)C(F)(F)C(F)(F)C(F)(F)C(F)(F)C(F)(F)C(F)(F)C(F)(F)C(F)(F)F [Perfluorotridecanoic acid]
Description: as §1

Azathioprine = compound: Cn1cnc([N+](=O)[O-])c1Sc1ncnc2[nH]cnc12 [Azathioprine]
Description: as §1

1H,1H-Heptafluorobutanol = compound: OCC(F)(F)C(F)(F)C(F)(F)F [1H,1H-Heptafluorobutanol]
Description: as §1

[2] = compound: O=C(O)C(F)(F)C(F)(F)C(F)(F)C(F)(F)C(F)(F)C(F)(F)C(F)(F)C(F)(F)C(F)(F)C(F)(F)C(F)(F)C(F)(F)C(F)(F)F [Perfluorotetradecanoic acid]
Description: as §1

Row | Test System | level (log10) (Hexafluoroglutaric acid; 6700 nM) | level (log10) (Hexafluoroglutaric acid; 20000 nM) | level (log10) (Hexafluoroglutaric acid; 60000 nM) | level (log10) (Perfluorooctanamide; 6700 nM) | level (log10) (Perfluorooctanamide; 20000 nM) | level (log10) (Perfluorooctanamide; 60000 nM) | level (log10) ([1]; 1500 nM) | level (log10) ([1]; 4400 nM) | level (log10) ([1]; 13000 nM) | level (log10) ([1]; 40000 nM) | level (log10) (Azathioprine; 1400 nM) | level (log10) (Azathioprine; 4200 nM) | level (log10) (Azathioprine; 13000 nM) | level (log10) (Azathioprine; 38000 nM) | level (log10) (1H,1H-Heptafluorobutanol; 6700 nM) | level (log10) (1H,1H-Heptafluorobutanol; 20000 nM) | level (log10) (1H,1H-Heptafluorobutanol; 60000 nM) | level (log10) ([2]; 6700 nM) | level (log10) ([2]; 20000 nM)
1 | BT:sIL-17A | 0.02 ± 0.073 | -0.0205 ± 0.21 | -0.0585 ± 0.12 | 0.122 ± 0.016 | 0.0965 ± 0.0035 | 0.034 ± 0.26 | -0.134 ± 0.0028 | -0.113 ± 0.014 | 0.155 ± 0.15 | -0.104 ± 0.11 | -0.075 ± 0.078 | -0.179 ± 0.099 | -0.304 ± 0.0057 | -0.804 ± 0.058 | -0.145 ± 0.19 | -0.166 ± 0.005 | -0.0935 ± 0.25 | -0.111 ± 0.021 | -0.059 ± 0.16
2 | BT:sIL-17F | 0.046 ± 0.071 | 0.0335 ± 0.05 | -0.004 ± 0.0085 | 0.0205 ± 0.0064 | -0.0165 ± 0.035 | -0.0955 ± 0.1 | -0.0115 ± 0.1 | -0.02 ± 0.048 | 0.0775 ± 0.067 | 0.004 ± 0.09 | -0.0825 ± 0.079 | -0.041 ± 0.12 | -0.092 ± 0.054 | -0.254 ± 0.025 | -0.007 ± 0.035 | -0.0425 ± 0.29 | -0.0385 ± 0.032 | -0.019 ± 0.058 | -0.0085 ± 0.028
3 | BT:sTNF-alpha | 0.026 ± 0.13 | 0.0415 ± 0.039 | 0.116 ± 0.039 | -0.0175 ± 0.011 | 0.0215 ± 0.056 | -0.129 ± 0.095 | 0.0475 ± 0.064 | 0.0075 ± 0.033 | -0.054 ± 0.096 | -0.05 ± 0.067 | 0.0225 ± 0.22 | -0.168 ± 0.11 | -0.167 ± 0.017 | -0.782 ± 0.077 | 0.078 ± 0.055 | 0.0915 ± 0.057 | 0.011 ± 0.083 | 0.014 ± 0.11 | -0.082 ± 0.092
4 | LPS:CCL2/MCP-1 | -0.0135 ± 0.026 | -0.012 ± 0.011 | -0.004 ± 0.013 | -0.0295 ± 0.015 | 0.001 ± 0.0099 | -0.0765 ± 0.012 | 0.005 ± 0.071 | 0.0315 ± 0.032 | 0.0145 ± 0.0078 | 0.0155 ± 0.029 | 0.019 ± 0.055 | 0.011 ± 0.0042 | 0.03 ± 0.023 | -0.01 ± 0.0014 | -0.0125 ± 0.018 | -0.0055 ± 0.0035 | -0.001 ± 0.017 | 0.013 ± 0.055 | 0.0055 ± 0.077
5 | LPS:CD40 | 0 ± 0.0028 | -0.0035 ± 0.035 | 0.0085 ± 0.046 | -0.034 ± 0.021 | -0.015 ± 0.0057 | -0.0265 ± 0.028 | 0.015 ± 0.092 | -0.0215 ± 0.17 | -0.032 ± 0.11 | -0.03 ± 0.092 | -0.041 ± 0.03 | -0.04 ± 0.016 | -0.08 ± 0.047 | -0.148 ± 0.03 | 0.056 ± 0.023 | 0.0345 ± 0.0064 | 0.0045 ± 0.049 | 0.0005 ± 0.12 | 0 ± 0.11
6 | LPS:CD62E/E-Selectin | -0.003 ± 0.035 | 0.0045 ± 0.03 | 0.004 ± 0.033 | -0.002 ± 0.014 | -0.001 ± 0.011 | 0.0205 ± 0.0078 | 0.004 ± 0.02 | 0.0025 ± 0.028 | -0.002 ± 0.0085 | -0.0065 ± 0.005 | 0.0155 ± 0.0035 | 0.0075 ± 0.015 | 0.0145 ± 0.013 | -0.006 | 0.0035 ± 0.013 | 0.001 ± 0.013 | -0.0035 ± 0.0092 | -0.0035 ± 0.011 | 0.01 ± 0.04
7 | LPS:CD69 | -0.003 ± 0.011 | -0.014 ± 0.0099 | 0.0075 ± 0.0021 | -0.0115 ± 0.086 | 0.0295 ± 0.036 | 0.0385 ± 0.029 | 0.002 ± 0.034 | -0.0545 ± 0.053 | -0.0455 ± 0.044 | -0.069 ± 0.025 | -0.0175 ± 0.00071 | -0.046 ± 0.0014 | -0.0345 ± 0.033 | -0.073 ± 0.04 | -0.016 ± 0.021 | -0.0245 ± 0.021 | -0.0075 ± 0.0035 | -0.012 ± 0.025 | -0.027 ± 0.068
8 | LPS:CD106/VCAM-1 | -0.006 ± 0.016 | -0.015 ± 0.024 | -0.005 ± 0.0071 | -0.0025 ± 0.012 | 0.006 ± 0.0028 | 0.0245 ± 0.00071 | -0.004 ± 0.0014 | -0.0315 ± 0.054 | -0.029 ± 0.052 | -0.08 ± 0.0057 | -0.0125 ± 0.03 | -0.0215 ± 0.028 | -0.0595 ± 0.028 | -0.155 ± 0.025 | -0.0165 ± 0.0078 | 0.005 ± 0.0014 | 0.0035 ± 0.0021 | -0.036 ± 0.033 | -0.0565 ± 0.039
9 | LPS:CD141/Thrombomodulin | 0.002 ± 0.0071 | -0.022 ± 0.021 | -0.0355 ± 0.032 | -0.016 ± 0.03 | -0.0075 ± 0.0064 | -0.0155 ± 0.037 | 0.045 ± 0.016 | 0.0125 ± 0.0092 | 0.0335 ± 0.0035 | -0.001 ± 0.016 | 0.046 ± 0.061 | 0.04 ± 0.037 | 0.0455 ± 0.035 | -0.0055 ± 0.067 | 0.01 ± 0.013 | 0.003 ± 0.016 | -0.008 ± 0.011 | 0.009 ± 0.1 | -0.002 ± 0.072
10 | LPS:CD142/Tissue Factor | 0.0325 ± 0.08 | -0.0085 ± 0.077 | -0.0285 ± 0.081 | -0.0585 ± 0.0092 | 0.0025 ± 0.032 | -0.002 ± 0.0042 | 0.0325 ± 0.08 | -0.026 ± 0.058 | 0.0025 ± 0.069 | 0.0325 ± 0.019 | 0.042 ± 0.028 | 0.014 ± 0.0042 | 0.0375 ± 0.0064 | -0.0085 ± 0.044 | 0.012 ± 0.05 | 0.015 ± 0.034 | -0.0125 ± 0.0078 | 0.0225 ± 0.04 | 0.0025 ± 0.098
11 | LPS:CXCL8/IL-8 | -0.0235 ± 0.012 | -0.0535 ± 0.018 | -0.028 ± 0.067 | -0.012 ± 0.024 | -0.049 ± 0.023 | -0.0335 ± 0.021 | -0.011 ± 0.041 | -0.058 ± 0.041 | -0.0065 ± 0.042 | 0.016 ± 0.11 | 0.035 ± 0.025 | 0.0065 ± 0.013 | 0.0085 ± 0.0092 | -0.049 ± 0.072 | 0.0085 ± 0.013 | -0.006 | -0.025 ± 0.0014 | 0.0125 ± 0.077 | 0.0255 ± 0.16
12 | LPS:IL-1alpha | -0.023 ± 0.02 | -0.0325 ± 0.0064 | 0.002 ± 0.037 | -0.032 ± 0.033 | -0.003 ± 0.047 | -0.0395 ± 0.0092 | 0.0655 ± 0.088 | -0.0155 ± 0.06 | 0.0405 ± 0.042 | 0.0445 ± 0.018 | 0.0405 ± 0.067 | 0.04 ± 0.064 | 0.0165 ± 0.0064 | -0.0185 ± 0.00071 | -0.028 ± 0.025 | -0.068 ± 0.0085 | 0.0095 ± 0.015 | -0.031 ± 0.071 | -0.045 ± 0.09
13 | LPS:M-CSF | 0.024 ± 0.047 | -0.019 ± 0.028 | -0.034 ± 0.051 | -0.0005 ± 0.022 | -0.0205 ± 0.013 | -0.067 ± 0.0085 | -0.006 ± 0.042 | -0.017 ± 0.047 | -0.0135 ± 0.019 | -0.568 ± 0.03 | -0.011 ± 0.025 | -0.024 ± 0.018 | -0.0475 ± 0.056 | -0.125 ± 0.0042 | 0.011 ± 0.0071 | -0.007 ± 0.055 | 0.006 ± 0.016 | -0.0435 ± 0.0021 | -0.0695 ± 0.037
14 | LPS:SRB | -0.0025 ± 0.011 | -0.0065 ± 0.016 | 0.01 ± 0.025 | 0.006 ± 0.013 | 0.001 ± 0.0099 | -0.0015 ± 0.011 | -0.003 ± 0.014 | -0.011 ± 0.0014 | -0.008 ± 0.011 | 0.006 ± 0.021 | -0.002 ± 0.0099 | -0.0105 ± 0.0078 | -0.0215 ± 0.013 | -0.039 ± 0.014 | -0.0085 ± 0.0035 | 0.005 ± 0.0014 | -0.003 ± 0.0028 | -0.011 ± 0.0042 | -0.0055 ± 0.018
15 | LPS:sPGE2 | -0.0265 ± 0.028 | -0.039 ± 0.031 | -0.0185 ± 0.069 | 0.019 ± 0.035 | 0.0225 ± 0.025 | 0.0545 ± 0.036 | 0.0325 ± 0.016 | 0.0275 ± 0.049 | -0.052 ± 0.034 | -0.022 ± 0.061 | -0.0075 ± 0.033 | 0.037 | -0.022 ± 0.018 | -0.0985 ± 0.03 | 0.025 ± 0.04 | -0.0225 ± 0.052 | 0.009 ± 0.027 | 0.0005 ± 0.011 | 0.0255 ± 0.019
